Data: patent publication US6737383B1, “Herbicidal oxadiazolidines” (priority 1999, dated 2004)

What was measured:
purple nutsedge = assay: Test B pre/postemergence purple nutsedge; type: in vivo, Cyperus rotundus
Method in brief: (§1)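 Test chemicals in a non-phytotoxic solvent mixture with surfactant were sprayed preemergence onto planted seeds and postemergence onto plants 2 to 18 cm tall (1- to 4-leaf stage). After twelve to sixteen days in a greenhouse, injury was visually rated against untreated controls from 0 (no effect) to 10 (complete control).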

cocklebur = assay: Test B pre/postemergence cocklebur; type: in vivo, Xanthium strumarium
Method in brief: as §1

bedstraw = assay: Test B pre/postemergence bedstraw; type: in vivo, Galium aparine
Method in brief: as §1

giant foxtail = assay: Test B pre/postemergence giant foxtail; type: in vivo, Setaria faberii
Method in brief: as §1

surinam grass = assay: Test B pre/postemergence surinam grass; type: in vivo, Brachiaria decumbens
Method in brief: as §1

pigweed = assay: Test B pre/postemergence pigweed; type: in vivo, Amaranthus retroflexus
Method in brief: as §1

sugar beet = assay: Test B pre/postemergence sugar beet; type: in vivo, Beta vulgaris
Method in brief: as §1

morningglory = assay: Test B pre/postemergence morningglory; type: in vivo, Ipomoea hederacea
Method in brief: as §1

velvetleaf = assay: Test B pre/postemergence velvetleaf; type: in vivo, Abutilon theophrasti
Method in brief: as §1

soybean = assay: Test B pre/postemergence soybean; type: in vivo, Glycine max
Method in brief: as §1

wild oat = assay: Test B pre/postemergence wild oat; type: in vivo, Avena fatua
Method in brief: as §1

crabgrass = assay: Test B pre/postemergence crabgrass; type: in vivo, Digitaria sanguinalis
Method in brief: as §1

rape = assay: Test B pre/postemergence rape; type: in vivo, Brassica napus
Method in brief: as §1

blackgrass = assay: Test B pre/postemergence blackgrass; type: in vivo, Alopecurus myosuroides
Method in brief: as §1

wheat = assay: Test B pre/postemergence wheat; type: in vivo, Triticum aestivum
Method in brief: as §1

corn = assay: Test B pre/postemergence corn; type: in vivo, Zea mays
Method in brief: as §1

[1] = Postemergence, Rate 62 g/ha, scale of 0 to 10, 0 is no effect, 10 is complete control
[2] = Postemergence, Rate 125 g/ha, scale of 0 to 10 where 0 is no effect and 10 is complete control
[3] = Postemergence, Rate 250 g/ha, scale of 0 to 10, 0 is no effect, 10 is complete control
[4] = Postemergence, Rate 500 g/ha, scale of 0 to 10 where 0 is no effect and 10 is complete control
[5] = Preemergence, Rate 62 g/ha, scale 0 to 10 (0 no effect, 10 complete control)
[6] = Preemergence, Rate 125 g/ha, scale of 0 to 10 where 0 is no effect and 10 is complete control
[7] = Preemergence, Rate 500 g/ha, scale of 0 to 10 where 0 is no effect and 10 is complete control

CC(C)N(C(=O)n1oc(=O)n(CCCC(F)(F)F)c1=O)c1ccccc1 [Compound 585] was tested, and the “Nutsedge plant response rating” value (purple nutsedge; [1]) was 0, the “Plant response rating, Nutsedge” value (purple nutsedge; [2]) was 0 and the “Nutsedge plant response rating” value (purple nutsedge; [3]) was 0. For the same molecule, the “Plant response rating, Nutsedge” value (purple nutsedge; [4]) was 0, the “Nutsedge plant response rating” value (purple nutsedge; [5]) was 0 and the “Nutsedge plant response rating” value (purple nutsedge; [6]) was 0. For the same molecule, the “Nutsedge plant response rating” value (purple nutsedge; [7]) was 10, the “Cocklebur plant response rating” value (cocklebur; [1]) was 0 and the “Plant response rating, Cocklebur” value (cocklebur; [2]) was 0. The “Cocklebur plant response rating” value (cocklebur; [3]) was 0, the “Plant response rating, Cocklebur” value (cocklebur; [4]) was 7 and the “Cocklebur plant response rating” value (cocklebur; [5]) was 0. For the same molecule, the “Cocklebur plant response rating” value (cocklebur; [6]) was 0, the “Cocklebur plant response rating (0 to 10 scale)” value (cocklebur; Preemergence, Rate 250 g/ha) was 0 and the “Cocklebur plant response rating” value (cocklebur; [7]) was 3. The “Bedstraw plant response rating” value (bedstraw; [1]) was 0, the “Plant response rating, Bedstraw” value (bedstraw; [2]) was 8 and the “Bedstraw plant response rating” value (bedstraw; [5]) was 7. The “Bedstraw plant response rating” value (bedstraw; [6]) was 8, the “Bedstraw plant response rating (0 to 10 scale)” value (bedstraw; Preemergence, Rate 250 g/ha) was 9 and the “Bedstraw plant response rating” value (bedstraw; [7]) was 8. The “Giant foxtail plant response rating” value (giant foxtail; [1]) was 6, the “Plant response rating, Giant foxtail” value (giant foxtail; [2]) was 6 and the “Giant foxtail plant response rating” value (giant foxtail; [3]) was 8. For the same molecule, the “Plant response rating, Giant foxtail” value (giant foxtail; [4]) was 9, the “Giant foxtail plant response rating” value (giant foxtail; [5]) was 7 and the “Giant foxtail plant response rating” value (giant foxtail; [6]) was 6. For the same molecule, the “Giant foxtail plant response rating” value (giant foxtail; [7]) was 10, the “B. signalgrass plant response rating” value (surinam grass; [1]) was 0 and the “Plant response rating, B. signalgrass” value (surinam grass; [2]) was 0. For the same molecule, the “B. signalgrass plant response rating” value (surinam grass; [3]) was 0, the “Plant response rating, B. signalgrass” value (surinam grass; [4]) was 7 and the “B. signalgrass plant response rating” value (surinam grass; [5]) was 3. The “B. signalgrass plant response rating” value (surinam grass; [6]) was 8, the “B. signalgrass plant response rating (0 to 10 scale, 0 is no effect, 10 is complete control)” value (surinam grass; Preemergence, Rate 250 g/ha) was 9 and the “B. signalgrass plant response rating” value (surinam grass; [7]) was 9. For the same molecule, the “Plant response rating, Redroot pigweed” value (pigweed; [2]) was 0, the “Redroot pigweed plant response rating” value (pigweed; [3]) was 3 and the “Plant response rating, Redroot pigweed” value (pigweed; [4]) was 7. For the same molecule, the “Redroot pigweed plant response rating” value (pigweed; [5]) was 6, the “Redroot pigweed plant response rating” value (pigweed; [6]) was 9 and the “Redroot pigweed plant response rating” value (pigweed; [7]) was 10. The “Plant response rating, Sugarbeets” value (sugar beet; [2]) was 2, the “Sugarbeets plant response rating” value (sugar beet; [3]) was 4 and the “Plant response rating, Sugarbeets” value (sugar beet; [4]) was 7. For the same molecule, the “Sugarbeets plant response rating” value (sugar beet; [5]) was 0, the “Sugarbeets plant response rating” value (sugar beet; [6]) was 3 and the “Sugarbeets plant response rating” value (sugar beet; [7]) was 6. The “Morningglory plant response rating” value (morningglory; [1]) was 4, the “Plant response rating, Morningglory” value (morningglory; [2]) was 8 and the “Morningglory plant response rating” value (morningglory; [3]) was 10. The “Plant response rating, Morningglory” value (morningglory; [4]) was 10, the “Morningglory plant response rating” value (morningglory; [5]) was 0 and the “Morningglory plant response rating” value (morningglory; [6]) was 0. For the same molecule, the “Morningglory plant response rating” value (morningglory; [7]) was 5, the “Plant response rating, Velvetleaf” value (velvetleaf; [2]) was 3 and the “Velvetleaf plant response rating” value (velvetleaf; [3]) was 4. The “Plant response rating, Velvetleaf” value (velvetleaf; [4]) was 5, the “Velvetleaf plant response rating” value (velvetleaf; [5]) was 0 and the “Velvetleaf plant response rating” value (velvetleaf; [6]) was 0. For the same molecule, the “Velvetleaf plant response rating” value (velvetleaf; [7]) was 6, the “Plant response rating, Soybean” value (soybean; [2]) was 0 and the “Soybean plant response rating” value (soybean; [3]) was 4. The “Plant response rating, Soybean” value (soybean; [4]) was 3, the “Soybean plant response rating” value (soybean; [5]) was 0 and the “Soybean plant response rating” value (soybean; [6]) was 0. For the same molecule, the “Soybean plant response rating” value (soybean; [7]) was 3, the “Plant response rating, Wild oats” value (wild oat; [2]) was 0 and the “Wild oats plant response rating” value (wild oat; [3]) was 0. For the same molecule, the “Plant response rating, Wild oats” value (wild oat; [4]) was 2, the “Wild oats plant response rating” value (wild oat; [5]) was 0 and the “Wild oats plant response rating” value (wild oat; [6]) was 3. For the same molecule, the “Wild oats plant response rating” value (wild oat; [7]) was 9, the “Plant response rating, Crabgrass” value (crabgrass; [2]) was 5 and the “Crabgrass plant response rating” value (crabgrass; [3]) was 9. The “Plant response rating, Crabgrass” value (crabgrass; [4]) was 9, the “Crabgrass plant response rating” value (crabgrass; [5]) was 5 and the “Crabgrass plant response rating” value (crabgrass; [6]) was 8. For the same molecule, the “Crabgrass plant response rating” value (crabgrass; [7]) was 10, the “Rape plant response rating” value (rape; [1]) was 0 and the “Plant response rating, Rape” value (rape; [2]) was 3. For the same molecule, the “Rape plant response rating” value (rape; [3]) was 5, the “Plant response rating, Rape” value (rape; [4]) was 5 and the “Rape plant response rating” value (rape; [5]) was 3. For the same molecule, the “Rape plant response rating” value (rape; [6]) was 8, the “Rape plant response rating” value (rape; [7]) was 10 and the “Blackgrass plant response rating” value (blackgrass; [1]) was 3. For the same molecule, the “Plant response rating, Blackgrass” value (blackgrass; [2]) was 6, the “Blackgrass plant response rating” value (blackgrass; [3]) was 6 and the “Plant response rating, Blackgrass” value (blackgrass; [4]) was 7. For the same molecule, the “Blackgrass plant response rating” value (blackgrass; [5]) was 3, the “Blackgrass plant response rating” value (blackgrass; [6]) was 8 and the “Blackgrass plant response rating (0 to 10 scale)” value (blackgrass; Preemergence, Rate 250 g/ha) was 8. The “Blackgrass plant response rating” value (blackgrass; [7]) was 8, the “Plant response rating, Wheat” value (wheat; [2]) was 2 and the “Wheat plant response rating” value (wheat; [3]) was 2. The “Plant response rating, Wheat” value (wheat; [4]) was 4, the “Wheat plant response rating” value (wheat; [5]) was 0 and the “Wheat plant response rating” value (wheat; [6]) was 3. The “Wheat plant response rating” value (wheat; [7]) was 3, the “Corn plant response rating” value (corn; [1]) was 0 and the “Plant response rating, Corn” value (corn; [2]) was 0. For the same molecule, the “Corn plant response rating” value (corn; [3]) was 0, the “Plant response rating, Corn” value (corn; [4]) was 5 and the “Corn plant response rating” value (corn; [5]) was 0. For the same molecule, the “Corn plant response rating” value (corn; [6]) was 2, the “Corn plant response rating (0 to 10 scale)” value (corn; Preemergence, Rate 250 g/ha) was 3 and the “Corn plant response rating” value (corn; [7]) was 5.
